Reference: patent US5063206A, “Compositions having use as treatment of neuropsychiatric deficits” (The United States of Americas as represented by the …, priority 1989, dated 1991)

Tested on: volunteers who tested negative for HIV antibodies
Assay: Clinical effects observed in volunteers who tested negative for HIV antibodies
Assay type: in vivo, human
Method: was given at dosage of 0.033 mg/kg/da to 0.133 mg/kg/da for seven days. As indicated in the Table, the unexpected effects observed in these volunteers who tested negative for HIV antibodies were the following: […]

Question: Which results are given for “D--Ala--Ser--Thr--Thr--Thr--Asn--Tyr--Thr--amide (ASTTTNYT; N-terminal D-residue; C-terminal amide; printed: Ala--Ser--Thr--Thr--Thr--Asn--Tyr--Thr--) [Peptide T]”?
Answer: symptoms of substance abuse, childhood dyslexia and depression (0.033 mg/kg/da to 0.133 mg/kg/da for seven days): ameliorated; scores on memory and attention components of standard neuropsychologic tests (0.033-0.133 mg/kg/da for seven days, effect remitted after Peptide T was discontinued): Incremental scores; physical activity while on drug (all subjects, did not continue after drug discontinuance): increases in physical activity; mood scores on depression scales (the two research volunteers who had prior histories of depression): Improved mood scores; duration of the improved mood effect (the two research volunteers who had prior histories of depression, follow-up): maintained for one month of follow-up
